From patent US4575560A, “Insecticidal diaminoguanidine hydrazone compounds” (American Cyanamid Company, priority 1985, dated 1986)
≈ marks a conversion by molar mass, not a printed value.

Key:
[1] = test system: Southern Armyworm; test: Southern armyworm test, third-instar larvae on treated Sieva lima bean leaves; assay type: in vivo, Spodoptera eridania (Cramer); conditions: for Mortality Rating Southern Armyworm: third-instar larvae
Procedure: Test formulations and procedures used for evaluation are as follows:
A. 100 mg of the test material is weighed, placed in a funnel over a 113 g narrow-mouth bottle, rinsed into the bottle with a 35 mL scoop of acetone, followed by a 35 mL scoop of water and another 35 mL scoop of acetone to yield 1000 ppm in 65% acetone. If the material is not soluble, it is broken up with a glass rod and used as a suspension.
B. This stock solution ("A") is used to make 300 ppm solutions or suspensions by pipetting 30 mL of "A" into a bottle containing 70 mL of 50% acetone to yield 300 ppm. Further dilutions in 50% acetone are made as required.
C. Tests requiring 10 ppm acetone solutions: 1 mL of "A" is pipetted into 99 mL of acetone to yield 10 ppm. Additional dilutions are made using 50% acetone as required.
Southern Armyworm--Spodoptera eridania (Cramer)
A Sieva lima bean plant with just the primary leaves expanded to 1.91 cm is dipped for three seconds with agitation in the "A" solution of 1000 ppm and set in the hood to dry. Following this, one leaf is placed in a 9 cm petri dish which has a moist filter paper in the bottom and 10 third-instar armyworm larvae about 1 cm long. This dish is covered and held at 80° F., and 50% r.h. After two days, mortality counts and estimates of the amount of feeding are made. Compounds showing partial kill and/or inhibition of feeding are held for an extra day for further observations.
All compounds showing activity as defined above are retested, using the second leaf on the bean plant, after an interval of seven days from original treatment, as an assay of residual activity.

[2] = test system: Tobacco Budworm 3rd Instar; test: Tobacco budworm secondary test, third-instar larvae on treated cotton cotyledons; assay type: in vivo, Heliothis virescens (Fabricus)

SMILES | Mortality Rating Southern Armyworm ([1]; 10 ppm) | Mortality Rating Southern Armyworm ([1]; 1000 ppm) | Mortality Rating Tobacco Budworm 3rd Instar ([2]; 100 ppm) | reduced feeding (R) Tobacco Budworm 3rd Instar ([2]; 100 ppm) | Mortality Rating Tobacco Budworm 3rd Instar ([2]; 1000 ppm) | reduced feeding (R) Tobacco Budworm 3rd Instar ([2]; 1000 ppm) | Mortality Rating Southern Armyworm ([1]; 100 ppm) | Mortality Rating Tobacco Budworm 3rd Instar ([2]; 10 ppm) | reduced feeding (R) Tobacco Budworm 3rd Instar ([2]; 10 ppm) | LC50 ([1]; Spodoptera eridania, read-out: LC50 Southern Armyworm) [µg/mL]
N=C(NN=Cc1ccc(Br)cc1)NN=Cc1ccc(C(F)(F)F)cc1 [CF3 / Br / S] | 0 (No effect) | 9 (100%) | 0 (No effect) | R | 0 (No effect) | R | – | – | – | –
N=C(NN=Cc1ccc2c(c1)OC(F)C(F)(F)O2)NN=Cc1ccc2c(c1)OC(F)C(F)(F)O2 (stereo not drawn) [drawing 48 / S] | – | 9 (100%) | – | – | 0 (No effect) | R | 0 (No effect) | – | – | –
C=CCOC(=O)N(N=Cc1ccc(OC(F)(F)F)cc1)C(=N)NN=Cc1ccc(OC(F)(F)F)cc1 [CF3 O / CF3 O / CH2CHCH2] | 6 (66-75%) | 9 (100%) | – | – | 0 (No effect) | R | 8 (86-99%) | – | – | –
CNC(=O)N(N=Cc1ccc(OC(F)(F)C(F)F)cc1)C(=N)NN=Cc1ccc(OC(F)(F)C(F)F)cc1 [HCF2 CF2 O / HCF2 CF2 O / CH3 / H] | 0 (No effect) | 9 (100%) | – | – | 4 (46-55%) | – | 9 (100%) | – | – | –
N=C(NN=Cc1ccc(OC(F)(F)C(F)F)cc1)NN=Cc1ccc(C(F)(F)F)cc1 [CF3 / HCF2 CF2 O / B, 1-{[p-(1,1,2,2-tetrafluoroethoxy)benzylidene]amino}-3-{[p-(trifluoromethyl)benzylidene]amino}guanidine] | – | 9 (100%) | – | – | 3 (36-45%) | – | 9 (100%) | – | – | –
N=C(NN=Cc1ccc(OC(F)(F)F)cc1)N(N=Cc1ccc(OC(F)(F)F)cc1)C(=O)OCCCl [CF3 O / CF3 O / ClCH2 CH2] | 5 (56-65%) | 9 (100%) | 0 (No effect) | R | 8 (86-99%) | R | 9 (100%) | 0 (No effect) | R | –
CC1(C)Oc2ccc(C=NNC(=N)NN=Cc3ccc4c(c3)OC(C)(C)O4)cc2O1 [drawing 45 / S] | 6 (66-75%) | 9 (100%) | 0 (No effect) | – | 0 (No effect) | R | – | – | – | –
CCC(C)OC(=O)N(N=Cc1ccc(Cl)cc1)C(=N)NN=Cc1ccc(Cl)cc1 (stereo not drawn) [Cl / Cl / drawing 56] | – | 9 (100%) | 0 (No effect) | – | 0 (No effect) | R | 0 (No effect) | – | – | –
N=C(NN=Cc1ccc(C(F)(F)F)cc1)N(N=Cc1ccc(C(F)(F)F)cc1)C(=O)OCCCl [CF3 / CF3 / ClCH2 CH2, 3-[p-(trifluoromethyl)benzylidene]-2-{{[p-(trifluoromethyl)benzylidene]amino}amidino}carbazate ester] | 8 (86-99%) | 9 (100%) | 0 (No effect) | – | 2 (26-35%) | R | 9 (100%) | – | – | –
CN(C)C(=O)N(N=Cc1ccc(SC(F)(F)C(F)F)cc1)C(=N)NN=Cc1ccc(SC(F)(F)C(F)F)cc1 [HCF2 CF2 S / HCF2 CF2 S / CH3 / CH3] | 3 (36-45%) | 9 (100%) | 6 (66-75%) | – | 6 (66-75%) | – | 9 (100%) | 0 (No effect) | – | –
COC(=O)N(N=Cc1ccc(C(F)(F)F)cc1)C(=N)NN=Cc1ccc(C(F)(F)F)cc1 [CF3 / CF3 / CH3] | 3 (36-45%) | 9 (100%) | – | – | 6 (66-75%) | – | 9 (100%) | – | – | –
N=C(NN=Cc1ccc(OC(F)(F)C(F)F)cc1)N(N=Cc1ccc(OC(F)(F)C(F)F)cc1)C(=O)NCCCl [HCF2 CF2 O / HCF2 CF2 O / ClCH2 CH2 / H] | 0 (No effect) | 9 (100%) | 0 (No effect) | – | 6 (66-75%) | – | 8 (86-99%) | 0 (No effect) | – | 21 (≈ 34.8 µM)
N=C(NN=Cc1ccc(Br)cc1)NN=Cc1ccc(C(F)(F)F)cc1 [CF3 / Br / B] | 9 (100%) | 9 (100%) | – | – | 0 (No effect) | R | 9 (100%) | – | – | –
N=C(NN=Cc1ccc(Cl)cc1)NN=Cc1ccc(Cl)cc1 [Cl / HNO3] | – | 9 (100%) | – | – | 0 (No effect) | – | 0 (No effect) | – | – | –
N=C(NN=Cc1ccc(SC(F)(F)C(F)F)cc1)NN=Cc1ccc(SC(F)(F)C(F)F)cc1 [HCF2 CF2 S / B] | – | 9 (100%) | – | – | 0 (No effect) | R | 9 (100%) | – | – | –
N=C(NN=Cc1ccc(Br)cc1)NN=Cc1ccc(OC(F)(F)C(F)F)cc1 [Br / HCF2 CF2 O / B] | – | 9 (100%) | – | – | 0 (No effect) | R | 9 (100%) | – | – | –
N=C(NN=Cc1ccc(Cl)cc1)NN=Cc1ccc(OC(F)(F)C(F)F)cc1 [Cl / HCF2 CF2 O / B] | 0 (No effect) | 9 (100%) | 0 (No effect) | – | 0 (No effect) | R | 9 (100%) | – | – | –
CCOC(=O)N(N=Cc1ccc(OC(F)F)cc1)C(=N)NN=Cc1ccc(OC(F)F)cc1 [HCF2 O / HCF2 O / C2 H5] | 0 (No effect) | 9 (100%) | – | – | 2 (26-35%) | – | 9 (100%) | – | – | –
N=C(NN=Cc1ccc2c(c1)OC(F)(F)O2)NN=Cc1ccc2c(c1)OC(F)(F)O2 [drawing 46 / S] | 4 (46-55%) | 9 (100%) | 0 (No effect) | R | 0 (No effect) | R | 0 (No effect) | – | – | –
CC(C)OC(=O)N(N=Cc1ccc(SC(F)(F)C(F)F)cc1)C(=N)NN=Cc1ccc(SC(F)(F)C(F)F)cc1 [HCF2 CF2 S / HCF2 CF2 S / -i-C3 H7] | – | 9 (100%) | 0 (No effect) | – | 5 (56-65%) | R | 9 (100%) | – | – | –
CN(C)C(=O)N(N=Cc1ccc(F)cc1)C(=N)NN=Cc1ccc(F)cc1 [F / F / CH3 / CH3] | – | 8 (86-99%) | – | – | 0 (No effect) | – | 0 (No effect) | – | – | –
N=C(NN=Cc1ccc(OC(F)(F)C(Cl)Cl)cc1)NN=Cc1ccc(OC(F)(F)C(Cl)Cl)cc1 [HCCL2 CF2 O / S] | 7 (76-85%) | 9 (100%) | 0 (No effect) | R | 5 (56-65%) | – | 9 (100%) | – | – | –
N=C(NN=Cc1ccc(C(F)(F)F)cc1)N(N=Cc1ccc(C(F)(F)F)cc1)C(=O)OCCBr [CF3 / CF3 / BrCH2 CH2] | 0 (No effect) | 9 (100%) | – | – | 0 (No effect) | – | 0 (No effect) | – | – | –
CN(C)C(=O)N(N=Cc1ccc(SC(F)F)cc1)C(=N)NN=Cc1ccc(SC(F)F)cc1 [HCF2 S / HCF2 S / CH3 / CH3] | 0 (No effect) | 9 (100%) | – | – | 0 (No effect) | – | 9 (100%) | – | – | –
N=C(NN=Cc1ccc(SC(F)F)cc1)N(N=Cc1ccc(SC(F)F)cc1)C(=O)OCCCl [HCF2 S / HCF2 S / ClCH2 CH2] | – | 9 (100%) | – | – | 0 (No effect) | R | 0 (No effect) | – | – | –
